Source: patent US12655150B2 (Cedilla Therapeutics, Inc., priority 2021, dated 2026)

test system: NCI-H226; experiment: 72H TEAD Proliferation Assay (Cell Titer Glo 2.0); assay type: cell-based; details: CTG 2.0, cell line not given (NCI-H226 responsive, NCI-H28 non-responsive)
Procedure, shortened: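 NF2-deficient NCI-H226 mesothelioma cells, TEAD-dependent, treated 72 h; NF2-wild-type NCI-H28 serves as the TEAD-independent counter-screen for off-target cytotoxicity. Viable cells quantified by CellTiter-Glo 2.0 luminescence; background and time-zero signal subtracted, GI50 from nonlinear dose-response fit.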

GI50 | Compound
≤ 1 µM | COc1cc(-c2ccc(C(F)(F)F)cc2)nc2cc(C(=O)N3CCC3CO)ccc12 (single isomer, unassigned) [I-373, (2-(hydroxymethyl)azetidin-1-yl) (4-methoxy-2-(4-(trifluoromethyl)phenyl)quinolin-7-yl)methanone]

same assay, conditions: Homo sapiens, NCI-H226, 72 h, CTG 2.0, cell line not given (NCI-H226 responsive, NCI-H28 non-responsive)

Compound | GI50
CN(C)C(=O)c1ccc2c(c1)nc(-c1ccc(C(C)(C)C)cc1)c1nccn12 [I-74, 4-(4-(tert-Butyl)phenyl)-N,N-dimethylimidazo[1,2-a]quinoxaline-7-carboxamide] | 5 to 10 µM
O=C(O)c1ccc2c(c1)nc(Oc1ccc(C(F)(F)F)cc1)c1cccn12 [I-23, 4-(4-(Trifluoromethyl)phenoxy) pyrrolo[1,2-a] quinoxaline-7-carboxylic acid] | ≤ 1 µM
O=C(O)c1ccc2c(c1)nc(-c1ccc(C(F)(F)F)cc1)c1c(F)ccn12 [I-280, 3-fluoro-4-(4-(trifluoromethyl)phenyl)pyrrolo[1,2-a]quinoxaline-7-carboxylic acid] | ≤ 1 µM
CC(C)(C)c1ccc(-c2nc3cc(C(=O)O)ccc3n3cccc23)c(F)c1 [I-49, 4-(4-(tert-Butyl)-2-fluorophenyl)pyrrolo[1,2-a]quinoxaline-7-carboxylic acid] | > 10 µM
Cc1cc2c(-c3ccc(C(C)(C)C)cc3)nc3cc(C(=O)O)ccc3n2c1 [I-83, 4-(4-(tert-Butyl)phenyl)-2-methylpyrrolo[1,2-a]quinoxaline-7-carboxylic acid] | 1 to 5 µM
CNC(=O)c1cn2ccnc2c(-c2ccc(C(C)(C)C)cc2)n1 [I-143, 8-(4-(tert-Butyl)phenyl)-N-methylimidazo[1,2-a]pyrazine-6-carboxamide] | > 10 µM
C=CC(=O)NCc1cn2cc(C)nc2c(-c2ccc(C(F)(F)F)cc2)n1 [I-241, N-((2-methyl-8-(4-(trifluoromethyl)phenyl)imidazo[1,2-a]pyrazin-6-yl)methyl)acrylamide] | ≤ 1 µM
O=C(O)c1ccc2c(c1)nc(OCc1ccc(C(F)(F)F)cc1)c1cccn12 [I-130, 4-((4-(Trifluoromethyl)benzyl)oxy)pyrrolo[1,2-a]quinoxaline-7-carboxylic acid] | > 10 µM
CN(CCC(F)(F)F)c1nc2cc(C(=O)O)ccc2n2cccc12 [I-126, 4-(Methyl(3,3,3-trifluoropropyl)amino)pyrrolo[1,2-a]quinoxaline-7-carboxylic acid] | > 10 µM
C=CC(=O)Nc1ccc2c(c1)nc(-c1ccc(C(C)(C)C)cc1)c1nccn12 [I-91, N-(4-(4-(tert-butyl)phenyl)imidazo[1,2-a]quinoxalin-7-yl)acrylamide] | ≤ 1 µM
O=C(O)c1ccc2c(c1)nc(NC1CCCC(C(F)(F)F)C1)c1cccn12 (stereo not drawn) [I-19, 4-((3-(Trifluoromethyl)cyclohexyl)amino)pyrrolo[1,2-a]quinoxaline-7-carboxylic acid] | 1 to 5 µM
O=C(O)c1ccc2c(c1)nc(-c1ccc(C(F)(F)F)cn1)c1cccn12 [I-132, 4-(5-(Trifluoromethyl)pyridin-2-yl)pyrrolo[1,2-a]quinoxaline-7-carboxylic acid] | ≤ 1 µM
O=C(O)c1cc2nc(N3CCC4(CC3)CC4)c3cccn3c2cn1 [I-281, 6-(6-azaspiro[2.5]octan-6-yl)pyrido[4,3-e]pyrrolo[1,2-a]pyrazine-3-carboxylic acid] | 1 to 5 µM
C=CC(=O)Nc1ccc2cnc(-c3ccc(F)cc3)nc2c1 [I-82, N-(2-(4-Fluorophenyl)quinazolin-7-yl)acrylamide] | 1 to 5 µM
C=CC(=O)Nc1ccc2ccc(-c3ccc(C(C)(C)C)cc3)nc2c1 [I-106, N-(2-(4-(tert-butyl)phenyl)quinolin-7-yl)acrylamide] | 1 to 5 µM
O=C(O)c1ccc2c(c1)nc(N1CCC3(CCCCCC3)C1)c1cccn12 [I-25, 4-(2-Azaspiro[4.6]undecan-2-yl)pyrrolo[1,2-a]quinoxaline-7-carboxylic acid] | 5 to 10 µM
O=C(O)c1ccc2c(c1)nc(N1CCC3(CCC3)C1)c1cccn12 [I-33, 4-(6-Azaspiro[3.4]octan-6-yl)pyrrolo[1,2-a]quinoxaline-7-carboxylic acid] | 5 to 10 µM
Cc1cc(-c2ccc(C(F)(F)F)cc2)nc2cc(-c3nnn[nH]3)ccc12 [I-254, 4-Methyl-7-(1H-tetrazol-5-yl)-2-(4-(trifluoromethyl)phenyl)quinoline] | 5 to 10 µM
C=CC(=O)NCc1cn2ccnc2c(-c2ccc(C(F)(F)F)cc2)n1 [I-109, N-((8-(4-(trifluoromethyl)phenyl)imidazo[1,2-a]pyrazin-6-yl)methyl)acrylamide] | ≤ 1 µM
O=C(O)c1ccc2c(c1)nc(-c1ccc(C(F)(F)F)cc1F)c1cccn12 [I-50, 4-(2-fluoro-4-(trifluoromethyl)phenyl) pyrrolo[1,2-a] quinoxaline-7-carboxylic acid] | ≤ 1 µM
CC(C)(C)c1ccc(-c2cnc3ccc(-c4nnn[nH]4)cc3n2)cc1 [I-160, 2-(4-(tert-Butyl)phenyl)-7-(1H-tetrazol-5-yl)quinoxaline] | > 10 µM
C=CC(=O)N1CC(c2cn3ccnc3c(-c3ccc(C(F)(F)F)cc3)n2)C1 [I-245, 1-(3-(8-(4-(Trifluoromethyl)phenyl)imidazo[1,2-a]pyrazin-6-yl)azetidin-1-yl)prop-2-en-1-one] | ≤ 1 µM
COCC(C)CC(=O)N1CCc2c(cccc2-c2ccc(C(F)(F)F)cc2)C1 (stereo not drawn) [I-137, 4-Methoxy-3-methyl-1-(5-(4-(trifluoromethyl)phenyl)-3,4-dihydroisoquinolin-2(1H)-yl)butan-1-one] | 1 to 5 µM
C=CC(=O)NCc1cn2c(F)cnc2c(-c2ccc(C(F)(F)F)cc2)n1 [I-235, N-((3-fluoro-8-(4-(trifluoromethyl)phenyl)imidazo[1,2-a]pyrazin-6-yl)methyl)acrylamide] | ≤ 1 µM
C=CC(=O)Nc1cccc2nc(-c3ccc(C(C)(C)C)cc3)c(C)cc12 [I-99, N-(2-(4-(tert-butyl)phenyl)-3-methylquinolin-5-yl)acrylamide] | > 10 µM
O=C(O)c1ccc2c(c1)nc(N1CCC3(CCOCC3)CC1)c1cccn12 [I-27, 4-(3-Oxa-9-azaspiro [5.5]undecan-9-yl) pyrrolo[1,2-a] quinoxaline-7-carboxylic acid] | 1 to 5 µM

Second part, the molecule after the results:

GI50 | Compound
≤ 1 µM | C=CC(=O)NCc1nc(-c2ccc(C(F)(F)F)cc2)c2c(ccn2C)n1 [I-451, N-((5-methyl-4-(4-(trifluoromethyl)phenyl)-5H-pyrrolo[3,2-d]pyrimidin-2-yl)methyl)acrylamide]
≤ 1 µM | COc1cccc([C@H](C)NC(=O)c2ccc3c(OC)cc(-c4ccc(C(F)(F)F)cc4)nc3c2)c1 [I-348, (S)-4-methoxy-N-(1-(3-methoxyphenyl)ethyl)-2-(4-(trifluoromethyl)phenyl)quinoline-7-carboxamide]
≤ 1 µM | COc1cc(-c2ccc(C(F)(F)F)cc2F)nc2cc(C(=O)N[C@H](C)CO)ccc12 [I-337, (R)-2-(2-fluoro-4-(trifluoromethyl)phenyl)-N-(1-hydroxypropan-2-yl)-4-methoxyquinoline-7-carboxamide]
≤ 1 µM | C=CC(=O)NCc1cc2cc(F)ccc2c(-c2ccc(C(F)(F)F)cc2)n1 [I-299, N-((6-fluoro-1-(4-(trifluoromethyl)phenyl)isoquinolin-3-yl)methyl)acrylamide]
≤ 1 µM | Cc1cc2c(N3CCC(C(F)(F)F)CC3)nc3cc(C(=O)O)ccc3n2c1 [I-406, 2-Methyl-4-(4-(trifluoromethyl)piperidin-1-yl)pyrrolo[1,2-a]quinoxaline-7-carboxylic acid]
≤ 1 µM | COc1cc(-c2ccc(C(F)(F)F)cc2)nc2cc(C(=O)N[C@@H](C)CO)ccc12 [I-325, (S)—N-(1-hydroxypropan-2-yl)-4-methoxy-2-(4-(trifluoromethyl)phenyl)quinoline-7-carboxamide]
≤ 1 µM | CC[C@H](CO)NC(=O)c1ccc2c(OC)cc(-c3ccc(C(F)(F)F)cn3)nc2c1 [I-358, (R)—N-(1-hydroxybutan-2-yl)-4-methoxy-2-(5-(trifluoromethyl)pyridin-2-yl)quinoline-7-carboxamide]
5 to 10 µM | COc1cc(-c2ccc(C(F)(F)F)cc2)nc2cc(C(=O)N3CCC[C@@H]3CO)ccc12 [I-371, (R)-(2-(hydroxymethyl)pyrrolidin-1-yl) (4-methoxy-2-(4-(trifluoromethyl)phenyl)quinolin-7-yl)methanone]
1 to 5 µM | CC(C)(C)c1ccc(-c2nc3cc(S(C)(=O)=O)ccc3n3cccc23)cc1 [I-323, 4-(4-(tert-butyl)phenyl)-7-(methylsulfonyl)pyrrolo[1,2-a]quinoxaline]
≤ 1 µM | O=C(O)c1ccc2c(C3CC3)cc(-c3ccc(C(F)(F)F)cc3)nc2c1 [I-387, 4-cyclopropyl-2-(4-(trifluoromethyl)phenyl)quinoline-7-carboxylic acid]
≤ 1 µM | C[C@H](CO)NC(=O)c1ccc2c(OC(F)F)cc(-c3ccc(C(F)(F)F)cc3)nc2c1 [I-330, (R)-4-(difluoromethoxy)-N-(1-hydroxypropan-2-yl)-2-(4-(trifluoromethyl)phenyl)quinoline-7-carboxamide]
1 to 5 µM | C=CC(=O)NCc1cn2ccnc2c(N2CCC3(CC2)CC3)n1 [I-437, N-((8-(6-azaspiro[2.5]octan-6-yl)imidazo[1,2-a]pyrazin-6-yl)methyl)acrylamide]
1 to 5 µM | COc1cc(-c2ccc(C(F)(F)F)cc2)nc2cc(C3(O)COC3)ccc12 [I-419, 3-(4-methoxy-2-(4-(trifluoromethyl)phenyl)quinolin-7-yl)oxetan-3-ol]
1 to 5 µM | CC(C)(C)c1ccc(-c2nc3cc(S(N)(=O)=O)ccc3n3cccc23)cc1 [I-311, 4-(4-(tert-butyl)phenyl)pyrrolo[1,2-a]quinoxaline-7-sulfonamide]
5 to 10 µM | O=C(O)c1ccc2c(C3CCOCC3)cc(-c3ccc(C(F)(F)F)cc3)nc2c1 [I-390, 4-(tetrahydro-2H-pyran-4-yl)-2-(4-(trifluoromethyl)phenyl)quinoline-7-carboxylic acid]
